# Experimental data from patent US10793527B2, “Adenosine monophosphate-activated protein kinase agonist” (NATIONAL YANG-MING UNIVERSITY, priority 2016, dated 2020).
# pIC50: −log10 of the molar value.
# Key:
# [1] = biological target: T1, AMPKα1 immunoprecipitated protein extract (Homo sapiens, UniProt Q13131); assay: AMPK enzyme activity assay (SAMS peptide), AMPKα1 immunoprecipitated from PLC5 protein extract; type: biochemical; conditions: 20-20,000 nM compound; compared to the group without compound addition (FIG. 1A)
# T1 construct: AMPKα1 immunoprecipitated protein extract; endogenous in cells; host or cells: PLC5 liver cancer cells (immunoprecipitate on Protein A/G magnetic beads)
# Experimental: (§1) The protein extract of liver cancer cell PLC5 and the anti-AMPKα1 antibody were incubated in an immunoprecipitation buffer (G-Biosciences) overnight. Protein A/G Magnetic Beads (PureProteome™) are added to each sample respectively and incubated at 4° C. for 4 hours. In the case of the recombinant protein AMPK, 12.5 ng of the recombinant protein human AMPK (α1, β1, γ1) is incubated with various doses of the compound, and then AMPK activities are detected based on the manual of the SAMS peptide assay (Cyclex).
# (§2) It is shown by FIGS. 1A and 1B that the SCT-1015 compound can increase the activity of AMPK in liver cancer cells.
# [2] = biological target: recombinant protein human AMPK (α1, β1, γ1) (Homo sapiens, UniProt Q13131); assay: AMPK enzyme activity assay (SAMS peptide), recombinant protein; type: biochemical; conditions: 20-2,000 nM compound; compared with the group without compound addition (FIG. 1B)
# Experimental: as §1, §2
# AMPK T172 = assay: Detection of AMPK phosphorylation by ELISA assay in PLC5 cells; type: cell-based; conditions: PLC5 cultured with 10 μM compound for 24 hours, compared to control group
# Experimental: In this analysis, the commercial kit AMPK […] Phospho-ELISA Kit (KHO0651) produced by ThermoFisher Science is utilized. The hepatoma cell PLC5 is cultured with 10 μM of the compound for 24 hours, and the analysis is performed according to the manual, and the absorbance was detected at a wavelength of 450 nm.
# PLC/PRF/5 (PLC5) cells = assay: Cell viability of liver cancer cells (Prestoblue), PLC5; type: cell-based
# Experimental: (§3) Hepatoma cell Huh-7 was obtained from Health Science Research Resources Bank (HSRRB, Osaka. Japan; JCRB0403); Hepatoma cell PLC/PRF/5 (PLC5), Sk-Hep-1 and HCC1806 were obtained from the American Type Culture Collection (ATCC, Manassas, Va.). All cell lines are cultured immediately and frozen, so the frozen cells can be thawed every 3 months to allow experiments are conducted with the same batch of cells.
# (§4) Analysis is performed using a commercial kit Prestoblue assay produced by Thermo Fisher Scientific. Three liver cancer cell lines PLC/PRF/5, SK-hep1, and Huh-7 are cultured with compound SCT-1015 for 48 hours and 72 hours, respectively. […] The results support that the compound of the present invention can activate AMPK to inhibit the proliferation of liver cancer cells.
# [3] = system: phosphorylated AMPKα (p-AMPKα); assay: Detection of AMPK phosphorylation by immuno-blot assay; type: cell-based; conditions: PLC5, MDA-MB-231 and MDA-MB-453 cells; compared with the non-treated group (FIGS. 2A-2C)
# Experimental: (§5) The liver cancer cell PCL5 and the triple negative breast cancer cell (TNBC) MBA-MB-231 and MDA-MB-453 are cultured with the compound SCT-1015, respectively. The cells are collected, wash, and lysed by RIPA buffer to obtain a protein extract. The protein concentration was measured by Bio-Rad Protein Assay dye reagent (Bio-Rad). The protein samples are diluted with 2 times SDS-loading buffer (100 mM Tris HCl, pH 6.8, 200 mM β-mercaptoethanol, 4% SDS, 0.02% bromophenol blue, and 20% glycerol) to adjust volume, and electrophoresis is carried out using 10% SDS polyacrylamide gels and followed by transferring to PVDF membrane. The primary antibody is added to detect the target protein on the membrane, and then the secondary antibody with horseradish peroxidase is added, followed by addition of substrate (enhanced SuperSignal West Pico Cheminluminescent Substrate, Pierce) to obtain the signal of the specific protein. and the protein content is determined by β-actin. The β-actin is used as an internal control for protein amount.
# HIF1 and PDHK1 = assay: Immuno-blot of downstream signaling molecules in liver cancer cell lines; type: cell-based; conditions: PLC/PRF/5, SK-hep1 and Huh-7 (FIG. 2D)
# Experimental: as §5
# SK-hep1 cells = assay: Cell viability of liver cancer cells (Prestoblue), SK-hep1; type: cell-based; conditions: 5-20 μM, 48 hours and 72 hours, compared with control (DMSO) (FIG. 3)
# Experimental: as §3, §4
# Huh-7 cells = assay: Cell viability of liver cancer cells (Prestoblue), Huh-7; type: cell-based; conditions: 5-20 μM, 48 hours and 72 hours, compared with control (DMSO) (FIG. 3)
# Experimental: as §3, §4
# HCC1806/luc2 cells = assay: In situ triple negative breast cancer mouse model (HCC1806/luc2-bearing orthotopic mice), IVIS; type: in vivo; conditions: 20 mg/kg, fed daily for 14 days (FIG. 4)
# Experimental: An in situ triple negative breast cancer mouse model (HCC1806/luc2-bearing orthotopic mice) is established with HCC1806 cells carrying the luciferase (luc2) gene. The experimental mice are divided into two groups, namely (1) control group: solvent; (2) experimental group: compound SCT-1015 (20 mg/kg), and the mice are fed daily for 14 days. On day 0 and day 14, the substrate of luciferase is injected into the peritoneal cavity of mice, and the luminescence from HCC1806/luc2 cells is detected by in vivo imaging system (IVIS) to monitor cell growth.
# The results support that the compound of the present invention can activate AMPK to inhibit the growth of triple-negative breast cancer cells.
# mature adipocytes = assay: Cell growth of adipocytes (adipoRed staining, cell imaging); type: cell-based, human
# Experimental: (§6) According to the standard procedure of adipocyte differentiation, human pre-adipocytes are treated with adipogenesis reagent (Gibco StemPro) for 14 days to induce differentiation into mature adipocytes. Next, mature adipocytes are treated with different concentrations of compound SCT-1015 (100 μM, 25 μM, 12.5 μM, 5 μM, and 2.5 μM), solvent only (Mock), or non-treated and cultivated for 48 hours. Then, the adipocytes are stained with adipoRed (Lonza inc.), and the cell number is evaluated by fluorescence signals measured at excited and emission wavelength are 485 nm and 572 nm, respectively. In addition, after the cells were treated with 2.5 μM. of the compound SCT-1015, the cell morphology was also observed through cell imaging.
# undifferentiated cells = assay: Morphology of undifferentiated cells in the adipocyte culture; type: cell-based; conditions: 2.5 μM (FIG. 5B)
# Experimental: as §6
# [4] = Treatment of diet-induced obesity (DIO) mice, body weight; type: in vivo; conditions: compared to the control group of mice (FIG. 6)
# Description: The male mice C57BL/6 were purchased from the National Laboratory Animal Center (NLAC, Taipei, Taiwan) and fed high-fat-die for 4 weeks to establish the diet-induced obesity (DIO) mouse model for subsequent experiments
# Chain of recombinant protein human AMPK (α1, β1, γ1) (Q13131 whole entry): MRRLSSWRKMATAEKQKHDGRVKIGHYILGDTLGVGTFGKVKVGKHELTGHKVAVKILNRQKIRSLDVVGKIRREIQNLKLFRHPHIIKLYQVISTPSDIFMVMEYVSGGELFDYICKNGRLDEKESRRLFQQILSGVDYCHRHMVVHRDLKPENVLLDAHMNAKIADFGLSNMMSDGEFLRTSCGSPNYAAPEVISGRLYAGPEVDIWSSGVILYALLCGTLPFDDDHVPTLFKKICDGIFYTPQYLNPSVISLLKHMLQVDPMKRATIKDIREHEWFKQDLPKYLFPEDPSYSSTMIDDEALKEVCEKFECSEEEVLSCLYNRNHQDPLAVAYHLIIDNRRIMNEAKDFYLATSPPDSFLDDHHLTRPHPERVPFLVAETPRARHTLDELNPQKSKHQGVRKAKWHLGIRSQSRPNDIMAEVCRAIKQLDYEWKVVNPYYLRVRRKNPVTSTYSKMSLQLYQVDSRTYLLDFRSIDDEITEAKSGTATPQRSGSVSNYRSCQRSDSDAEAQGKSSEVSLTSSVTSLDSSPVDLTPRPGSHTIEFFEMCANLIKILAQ
# Chain of recombinant protein human AMPK (α1, β1, γ1) (Q9Y478 whole entry partner): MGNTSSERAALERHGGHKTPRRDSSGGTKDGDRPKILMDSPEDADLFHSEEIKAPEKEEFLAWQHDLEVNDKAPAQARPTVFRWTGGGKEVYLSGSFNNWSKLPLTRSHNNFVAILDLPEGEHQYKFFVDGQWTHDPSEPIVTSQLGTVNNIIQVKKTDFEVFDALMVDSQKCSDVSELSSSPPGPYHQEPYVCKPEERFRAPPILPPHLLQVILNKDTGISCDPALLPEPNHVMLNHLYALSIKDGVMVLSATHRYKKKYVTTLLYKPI
# Chain of recombinant protein human AMPK (α1, β1, γ1) (P54619 whole entry partner): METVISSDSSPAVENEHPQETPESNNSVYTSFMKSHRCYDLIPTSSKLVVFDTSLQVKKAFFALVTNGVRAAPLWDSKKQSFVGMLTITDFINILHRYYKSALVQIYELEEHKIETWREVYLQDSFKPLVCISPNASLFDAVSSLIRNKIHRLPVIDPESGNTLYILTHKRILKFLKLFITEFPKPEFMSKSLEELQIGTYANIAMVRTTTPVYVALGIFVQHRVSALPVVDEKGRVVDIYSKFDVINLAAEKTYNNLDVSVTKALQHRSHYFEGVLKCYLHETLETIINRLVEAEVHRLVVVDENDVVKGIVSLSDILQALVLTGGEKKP
# T1 sequence (Q13131 whole entry): as the sequence (Q13131 whole entry) above
# T1 sequence (Q9Y478 2-270 partner limits assumed): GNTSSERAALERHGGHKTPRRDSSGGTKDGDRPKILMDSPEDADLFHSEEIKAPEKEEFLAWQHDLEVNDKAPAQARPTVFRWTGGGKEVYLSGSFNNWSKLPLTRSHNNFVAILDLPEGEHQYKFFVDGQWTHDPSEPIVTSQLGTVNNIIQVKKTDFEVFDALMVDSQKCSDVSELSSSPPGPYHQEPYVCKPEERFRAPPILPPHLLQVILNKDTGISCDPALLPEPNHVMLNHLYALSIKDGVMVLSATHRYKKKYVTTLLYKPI
# T1 sequence (P54619 whole entry partner): as the sequence (P54619 whole entry partner) above
smiles,measurement,setting,value
"O=C(Nc1cccc(Nc2nccc(-c3ccc[nH]3)n2)c1)Nc1ccc(Cl)c(C(F)(F)F)c1 [SCT-1015, 1-(3-((4-(1H-pyrrol-2-yl)pyrimidin-2-yl)amino)phenyl)-3-(4-chloro-3-(trifluoromethyl)phenyl)urea]",AMPK activity,[1],significant increase
same,activity of the recombinant protein AMPKα1/β1/γ1,[2],significant increase
same,AMPK T172 activity,AMPK T172,1.8 fold
same,pIC50,"PLC/PRF/5 (PLC5) cells; PLC5 cells, 48 hr",4.92
same,cell proliferation,"PLC/PRF/5 (PLC5) cells; PLC/PRF/5, 5-20 μM, 48 hours and 72 hours, compared with control (DMSO) (FIG. 3)",inhibit the cell proliferation significantly
same,expression of phosphorylated AMPKα (p-AMPKα),[3],significantly increased
same,regulation of downstream signaling molecules HIF1 and PDHK1,HIF1 and PDHK1,regulates the downstream signaling molecules HIF1 and PDHK1
same,cell proliferation,SK-hep1 cells,inhibit the cell proliferation significantly
same,cell proliferation,Huh-7 cells,inhibit the cell proliferation significantly
same,number of HCC1806/luc2 cell on day 14 compared to control group,HCC1806/luc2 cells,significantly less
same,number of HCC1806/luc2 cell on day 14 compared to day 0,HCC1806/luc2 cells,does not show noteworthy increase
same,cell morphology of mature adipocytes,mature adipocytes; 2.5 μM (FIG. 5B),shrinkage and death
same,number of the mature adipocytes,"mature adipocytes; 2.5-100 μM, 48 hours, compared to control (Mock), dose-dependent (FIG. 5A)",significantly decreased
same,cell morphology of undifferentiated cells,undifferentiated cells,maintain a healthy cell morphology
same,body weight lost,[4],5%
